Laboratory results published in PMC6635573, “A live cell NanoBRET binding assay allows the study of ligand-binding kinetics to the adenosine A3 receptor” (Purinergic Signalling, 2019).

What was measured:
[1] = molecular target: T1, human A3AR (Homo sapiens, UniProt P0DMS8); experiment: NanoBRET equilibrium competition binding with AV039 as probe in Nluc-A3AR HEK293 cells
T1 sequence (P0DMS8 1-318): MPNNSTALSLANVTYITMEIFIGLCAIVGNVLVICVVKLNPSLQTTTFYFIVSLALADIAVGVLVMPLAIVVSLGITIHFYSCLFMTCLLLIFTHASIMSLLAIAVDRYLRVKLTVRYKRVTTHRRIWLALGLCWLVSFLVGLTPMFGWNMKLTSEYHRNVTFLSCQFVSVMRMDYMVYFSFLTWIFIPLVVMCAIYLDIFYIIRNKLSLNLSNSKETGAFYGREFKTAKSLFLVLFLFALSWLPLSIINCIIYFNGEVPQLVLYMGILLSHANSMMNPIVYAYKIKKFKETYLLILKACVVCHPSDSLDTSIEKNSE
Protocol: For saturation and competition binding assays, the required concentration of fluorescent ligand and competing ligand was added simultaneously and incubated for 1 h (for AV039) or 3 h (for XAC-S-ser-S-tyr-X-BY630) at 37 °C (no CO2). After 1 h, 10 μM furimazine was added to each well and the plate incubated for 5 min at 37 °C before reading. […] For association kinetic experiments, following the furimazine incubation, the required concentration of fluorescent ligand in the presence or absence of 10 μM MRS1220 was added simultaneously and the plate read immediately once per minute for up to 3 h at 37 °C. For kinetic competition association assays, after furimazine incubation, either XAC-S-ser-S-tyr-X-BY630 (20 nM) or AV039 (40 nM) were added simultaneously with the required concentration of unlabelled ligand or 10 μM MRS1220 to determine non-specific binding and read once per minute for the indicated times at 37 °C. For all NanoBRET experiments, fluorescence and luminescence were read using a PHERAstar FS plate reader (BMG Labtech, Ortenberg, Germany). Filtered light emissions were measured at 460 nm (80 nm band pass) and at > 610 nm (long pass) for the BY630 labelled ligands and at 450 nm (80 nm band pass) and > 550 nm (long pass) for the BYFL labelled ligand. […]

[2] = molecular target: T1, human A3AR; experiment: [3H]PSB-11 radioligand competition association (Motulsky and Mahan) in Nluc-A3AR HEK293 membranes; assay type: binding; parameters: expressed in transfected cells; conditions: for Kd: read-out: Kinetics pKD (converted)
Protocol: (§1) Prior to all experiments, membranes from HEK293 membranes expressing human Nluc-A3AR were diluted to 20 μg/well in a total volume of 100 μL/well assay buffer (50 mM Tris-HCl, 5 mM MgCl2, supplemented with 0.01% CHAPS and 1 mM EDTA, pH 7.4) and homogenised using an IKA T10 Ultra-Turrax disperser in 3 × 5 s bursts at 15,000 rpm. For equilibrium displacement assays, membranes were placed in 96-well microplates at 10 °C and the required concentration of competing agonist was added in the presence of a final concentration of ~ 10 nM [^3H] […] For association assays, Nluc-A3AR HEK293 membranes were placed at 10 °C in 96-well microplates and the amount of radioligand bound to the receptor was measured at different time points during a total incubation of 120 min. For dissociation experiments, HEK293 membranes expressing human Nluc-A3AR were incubated for 120 min with ~ 10 nM [^3H] […] The competition association assays were initiated by the addition of Nluc-A3AR HEK293 membranes at different time points for a total of 240 min to a total volume of 100 μl/well of assay buffer at 10 °C with ~ 10 nM [^3H] […] For all experiments, incubation was terminated by rapid filtration performed on 96-well GF/B filter plates using a PerkinElmer Filtermate-harvester (PerkinElmer, Groningen, The Netherlands). After drying the filter plate at 50 °C for 30 min, the filter-bound radioactivity was determined by scintillation spectrometry using a 2450 MicroBeta^2 Plate Counter (PerkinElmer, Boston, MA). In addition, the exact concentration of [^3H]
(§2) The binding kinetics of unlabelled ligands was quantified using the competition association assay based on the theoretical framework by Motulsky and Mahan. NanoBRET and radioligand data were fitted into the competition association model using ‘kinetics of competitive binding’ to determine association and dissociation rate constants of the unlabelled compounds:
KA=k1L⋅10^−9+k2KB=k3I⋅10^−9+k4S=KA−KB^2+4⋅k1⋅k3⋅L⋅I⋅10^−18KF=0.5KA+KB+SKS=0.5KA+KB−SQ=Bmax⋅k1⋅L⋅10^−9/KF−KSY=Q⋅k4⋅KF−KS/KF⋅KS+k4−KF/KFe^−KF⋅X−k4−KS/KSe^−KS⋅X where k1 is the kon of the labelled ligand (M^−1 min^−1), k2 is the koff of the labelled ligand (min^−1), L is the concentration of the labelled ligand in nanomolar, I is the concentration of the unlabelled competitor (nM), X is the time (min) and Y is the specific binding of the labelled ligand (NanoBRET ratio or DPM).
(§3) k1 and k2 values were generated from association kinetic experiments. k3, k4 and Bmax were then calculated, where k3 represents the kon (M^−1 min^−1) of the unlabelled ligand, k4 stands for the koff (min^−1) of the unlabelled ligand and Bmax equals the total binding (NanoBRET ratio or DPM). The residence time (RT) was calculated as the reciprocal of the ligand dissociation rate constant as follows: RT=1/koff
This was borne out in the kinetics parameters obtained from fitting the data to the Motulsky and Mahan model (Table 2).

[3] = molecular target: T1, human A3AR; experiment: [3H]PSB-11 radioligand equilibrium displacement in Nluc-A3AR HEK293 membranes; assay type: binding; parameters: expressed in transfected cells; conditions: read-out: Equilibrium competition pKi (converted)
Protocol: Prior to all experiments, membranes from HEK293 membranes expressing human Nluc-A3AR were diluted to 20 μg/well in a total volume of 100 μL/well assay buffer (50 mM Tris-HCl, 5 mM MgCl2, supplemented with 0.01% CHAPS and 1 mM EDTA, pH 7.4) and homogenised using an IKA T10 Ultra-Turrax disperser in 3 × 5 s bursts at 15,000 rpm. For equilibrium displacement assays, membranes were placed in 96-well microplates at 10 °C and the required concentration of competing agonist was added in the presence of a final concentration of ~ 10 nM [^3H] […] For all experiments, incubation was terminated by rapid filtration performed on 96-well GF/B filter plates using a PerkinElmer Filtermate-harvester (PerkinElmer, Groningen, The Netherlands). […] In addition, the exact concentration of [^3H]

[4] = molecular target: T1, human A3AR; experiment: NanoBRET equilibrium competition binding with XAC-S-ser-S-tyr-X-BY630 as probe in Nluc-A3AR HEK293 cells; parameters: expressed in transfected cells
[5] = molecular target: T1, human A3AR; experiment: NanoBRET kinetic competition association with XAC-S-ser-S-tyr-X-BY630 as probe in Nluc-A3AR HEK293 cells; assay type: binding; parameters: expressed in transfected cells; conditions: for Kinetics RT (probe XAC-S-ser-S-tyr-X-BY630): reciprocal of koff, NanoBRET competition association with 20 nM XAC-S-ser-S-tyr-X-BY630, cells
Protocol: as §2
The residence time (RT) was calculated as the reciprocal of the ligand dissociation rate constant as follows: RT=1/koff

[6] = molecular target: T1, human A3AR; experiment: NanoBRET kinetic competition association with AV039 as probe in Nluc-A3AR HEK293 cells; assay type: binding; parameters: expressed in transfected cells; conditions: for Kd: read-out: Kinetics pKD (probe AV039) (converted); for Kinetics RT (probe AV039): reciprocal of koff, NanoBRET competition association with 40 nM AV039, cells
Protocol: as §2, §3

[7] = molecular target: T1, human A3AR; experiment: [3H]PSB-11 saturation binding (KD used for the Ki calculation); parameters: expressed in transfected cells; conditions: radioligand, saturation binding assay of this study, read-out: KD, equilibrium dissociation constant of the labelled ligand
[8] = molecular target: T1, human A3AR; experiment: [3H]PSB-11 radioligand association and dissociation in Nluc-A3AR HEK293 membranes; assay type: binding; parameters: expressed in transfected cells; conditions: 10 °C
Protocol: as §1
To confirm the differences in the kinetics observed with AV039 and XAC-S-ser-S-tyr-X-BY630, radioligand equilibrium and kinetic binding assays in membranes from HEK293 cells stably expressing Nluc-A3AR were undertaken.

[9] = molecular target: T1, human A3AR; experiment: NanoBRET association kinetics of fluorescent antagonists in live Nluc-A3AR HEK293 cells; conditions: for residence time: read-out: Kinetics RT (residence time); for koff: read-out: Kinetics koff; for kon: read-out: Kinetics kon
Protocol: (§4) For saturation and competition binding assays, the required concentration of fluorescent ligand and competing ligand was added simultaneously and incubated for 1 h (for AV039) or 3 h (for XAC-S-ser-S-tyr-X-BY630) at 37 °C (no CO2). After 1 h, 10 μM furimazine was added to each well and the plate incubated for 5 min at 37 °C before reading. […] For association kinetic experiments, following the furimazine incubation, the required concentration of fluorescent ligand in the presence or absence of 10 μM MRS1220 was added simultaneously and the plate read immediately once per minute for up to 3 h at 37 °C. For kinetic competition association assays, after furimazine incubation, either XAC-S-ser-S-tyr-X-BY630 (20 nM) or AV039 (40 nM) were added simultaneously with the required concentration of unlabelled ligand or 10 μM MRS1220 to determine non-specific binding and read once per minute for the indicated times at 37 °C. For all NanoBRET experiments, fluorescence and luminescence were read using a PHERAstar FS plate reader (BMG Labtech, Ortenberg, Germany). Filtered light emissions were measured at 460 nm (80 nm band pass) and at > 610 nm (long pass) for the BY630 labelled ligands and at 450 nm (80 nm band pass) and > 550 nm (long pass) for the BYFL labelled ligand. The raw NanoBRET ratio was calculated by dividing the fluorescence emission (610 or 550 nm) by the luminescence emission (460 or 450 nm).
For NanoBRET association kinetic data, non-specific binding was determined in wells with fluorescent ligand plus 10 μM MRS1220 and this was obtained for each concentration of fluorescent ligand at each time point. This was subsequently subtracted from total binding at the equivalent time point. The data were simultaneously fit to the following equations: Y=Ymax1−e^−kobst kon=kobs−koff/L where Ymax equals the level of binding at infinite time (t), kobs is the rate constant for the observed rate of association at a particular concentration of L, [L] is the ligand concentration in molar, koff is the dissociation rate constant of the ligand in per minute and kon is the association rate constant in per molar per minute. From this, the equilibrium dissociation constant (KD) is determined as follows: KD=koff/kon

[10] = molecular target: T1, human A3AR; experiment: NanoBRET saturation binding of fluorescent antagonists in live Nluc-A3AR HEK293 cells
Protocol: as §4
NanoBRET total and non-specific saturation binding curves were fitted simultaneously using the following equation: BRET ratio=Bmax.B/B+KD+M.B+C where Bmax is the maximal specific binding achieved, [B] is the concentration of fluorescent ligand, KD is the equilibrium dissociation constant, M is the slope of the non-specific binding component and C is the intercept with the Y-axis.
Initially, we determined the affinity of each of these fluorescent antagonists at NanoLuc tagged A3AR (Nluc-A3AR) in the NanoBRET assay.

[11] = NanoBRET competition association with 40 nM AV039, Nluc-A3AR HEK293 cells, 37 °C
[12] = association and dissociation curves of 10 nM [3H]PSB-11, Nluc-A3AR HEK293 membranes
[13] = read-out: Kinetics koff (converted)
[14] = read-out: Kinetics kon (converted)

Kd [9] [nM] | residence time [9] [min] | koff [9] [s⁻¹] | kon [9] [M⁻¹ s⁻¹] | Kd [10] [nM] | Compound | Kd [2] [nM] | Ki [3] [nM] | Kinetics RT (probe XAC-S-ser-S-tyr-X-BY630) ([5]; 37 °C) [min] | Kinetics RT (probe AV039) ([6]; 37 °C) [min] | koff [2, 13] [s⁻¹] | kon [2, 14] [M⁻¹ s⁻¹] | also measured
 |  |  |  |  | COc1cccc(Cn2c(=O)n(CC3CC3)c(=O)c3c2nc2cc(OC)ccn23)c1 [LUF7565] | 0.776 | 1.02 | 49.2 ± 6.7 | 72.9 ± 8.3 |  |  | Ki [1]: 11.7 nM; koff ([2]; read-out: Kinetics koff): 0.000108 s⁻¹; kon ([2]; read-out: Kinetics kon): 136000 M⁻¹ s⁻¹; Ki [4]: 100 nM; Kd [5]: 13.5 nM; koff ([5]; NanoBRET competition association with 20 nM XAC-S-ser-S-tyr-X-BY630, Nluc-A3AR HEK293 cells, 37 °C, read-out: Kinetics koff (probe XAC-S-ser-S-tyr-X-BY630) (converted)): 0.000367 s⁻¹; kon ([5]; NanoBRET competition association with 20 nM XAC-S-ser-S-tyr-X-BY630, Nluc-A3AR HEK293 cells, 37 °C, read-out: Kinetics kon (probe XAC-S-ser-S-tyr-X-BY630) (converted)): 26800 M⁻¹ s⁻¹; Kd [6, 11]: 6.76 nM; koff ([6]; read-out: Kinetics koff (probe AV039)): 0.00025 s⁻¹; kon ([6]; read-out: Kinetics kon (probe AV039)): 44700 M⁻¹ s⁻¹
 |  |  |  |  | CC[C@@H]1CN2C(=O)N(C)c3nc(-c4ccccc4)[nH]c3C2=N1 [PSB-11] |  |  | 22.4 ± 6.1 | 6.6 ± 1.3 |  |  | 
 |  |  |  |  | [^3H]8-Ethyl-4-methyl-2-phenyl-(8R)-4,5,7,8-tetrahydro-1H-imidazo[2,1-i]-purin-5-one [[^3H]PSB-11] |  |  |  |  |  |  | Kd [7]: 9.9 nM; Kinetics kon [8, 12]: 2.75 ± 0.52 × 10^6 M^−1 min^−1; Kinetics pKD [8, 12]: 8.04 ± 0.08; Kinetics koff ([8]; association and dissociation curves of 10 nM [3H]PSB-11, dissociation initiated with 10 μM PSB-11, membranes): 0.000383 ± 3.3e-05 s⁻¹; Kinetics RT (residence time) ([8]; reciprocal of koff, 10 nM [3H]PSB-11, Nluc-A3AR HEK293 membranes): 44.6 ± 3.9 min
17.8 | 14.9 ± 1.1 | 0.00115 | 65800 | 16.6 | CCCn1c(=O)c2[nH]c(-c3ccc(OCC(=O)NCCNC(=O)[C@H](CO)NC(=O)[C@H](Cc4ccc(O)cc4)NC(=O)CCCCCNC(=O)CCc4ccc5n4[B-](F)(F)[N+]4=C(C)C=C(C)C4=C5)cc3)nc2n(CCC)c1=O [XAC-S-ser-S-tyr-X-BYFL] |  |  |  |  |  |  | 
 |  |  |  |  | COc1ccn2c(c1)nc1c2c(=O)[nH]c(=O)n1Cc1ccccc1 [compound 5, 1-Benzyl-8-methoxy-1H,3H-pyrido[2,1-f]purine-2,4-dione] | 29.5 | 44.7 | 23.2 ± 3.6 | 1.1 ± 0.4 | 0.0033 | 110000 | Ki [1]: 89.1 nM; Ki [4]: 832 nM; Kd [5]: 288 nM; koff ([5]; read-out: Kinetics koff (probe XAC-S-ser-S-tyr-X-BY630)): 0.000783 s⁻¹; kon ([5]; read-out: Kinetics kon (probe XAC-S-ser-S-tyr-X-BY630)): 2670 M⁻¹ s⁻¹; koff ([6]; NanoBRET competition association with 40 nM AV039, Nluc-A3AR HEK293 cells, 37 °C, read-out: Kinetics koff (probe AV039) (converted)): 0.0235 s⁻¹; kon ([6]; NanoBRET competition association with 40 nM AV039, Nluc-A3AR HEK293 cells, 37 °C, read-out: Kinetics kon (probe AV039) (converted)): 183000 M⁻¹ s⁻¹; Kd [6, 11]: 123 nM
44.7 | 6.8 ± 0.8 | 0.0025 | 61200 | 7.76 | COc1ccc(-n2nc3c(NC(=O)CCC(=O)NCCOCCOCCNC(=O)CCCCCNC(=O)COc4ccc(/C=C/C5=[N+]6C(=Cc7ccc(-c8cccs8)n7[B-]6(F)F)C=C5)cc4)nc4ccccc4n3c2=O)cc1 [AV039] | 23.4 | 22.4 |  |  | 0.00127 | 54500 | 

Compound | Kd [9] [nM] | residence time [9] [min] | koff [9] [s⁻¹] | kon [9] [M⁻¹ s⁻¹] | Kd [10] [nM] | Kd [2] [nM] | Ki [3] [nM] | Kinetics RT (probe XAC-S-ser-S-tyr-X-BY630) ([5]; 37 °C) [min] | Kinetics RT (probe AV039) ([6]; 37 °C) [min] | koff [2, 13] [s⁻¹] | kon [2, 14] [M⁻¹ s⁻¹] | also measured
CCCn1c(=O)c2[nH]c(-c3ccc(OCC(=O)NCCNC(=O)[C@H](CO)NC(=O)[C@H](Cc4ccc(O)cc4)NC(=O)CCCCCNC(=O)COc4ccc(/C=C/C5=[N+]6C(=Cc7ccc(-c8cccs8)n7[B-]6(F)F)C=C5)cc4)cc3)nc2n(CCC)c1=O [XAC-S-ser-S-tyr-X-BY630] | 2.69 | 288 ± 62 | 7.17e-05 | 27700 | 3.09 | 18.2 | 61.7 |  |  | 3.83e-05 | 2330 | residence time ([2]; read-out: RT (residence time)): > 450 min
